Several values for one entry are separate records, joined by “and”; a condition that tells them apart may be missing. Equal entries are not always repeated. Results filed as inconclusive are left out.

In this test the test system is BDF1 mice, M5076 sarcoma s.c., survival/tumor T/C. Description: NCI In Vivo Anticancer Drug Screen. Data for tumor model Sarcoma M5076 (subcutaneous) in B6D2F1 (BDF1) mice. The method, then: The antitumor activity of compounds was measured in mice bearing transplantable tumors. Survival or tumor size were measured and the results are expressed as the measurement made in the treated group (T) divided by the measurement made in the vehicle treated control group (C). The tumor model used in this assay is Sarcoma M5076 (subcutaneous) in B6D2F1 (BDF1) mice

[1] abbreviates: endpoint: mean tumor weight, dose: 20.0 mg/kg/injection, schedule: Q02DX011 (ip), vehicle: Klucel (hydroxypropylcellulose) (HPC), higher = larger tumour.
The mark [2] stands for this setting: endpoint: mean tumor weight, dose: 40.0 mg/kg/injection, schedule: Q02DX011 (ip), vehicle: Klucel (hydroxypropylcellulose) (HPC), higher = larger tumour.
Where [3] appears, read: endpoint: median tumor weight (est.), dose: 20.0 mg/kg/injection, schedule: Q02DX011 (ip), vehicle: Klucel (hydroxypropylcellulose) (HPC), higher = larger tumour.
The mark [4] stands for this setting: endpoint: median tumor weight (est.), dose: 40.0 mg/kg/injection, schedule: Q02DX011 (ip), vehicle: Klucel (hydroxypropylcellulose) (HPC), higher = larger tumour.
The mark [5] stands for this setting: endpoint: median survival time, dose: 50.0 mg/kg/injection, schedule: Q01DX009 (ip), vehicle: saline with Tween-80, higher = longer survival.
Where [6] appears, read: endpoint: median survival time, dose: 100.0 mg/kg/injection, schedule: Q01DX009 (ip), vehicle: saline with Tween-80, higher = longer survival.
Setting [7] is: endpoint: median survival time, dose: 200.0 mg/kg/injection, schedule: Q01DX009 (ip), vehicle: saline with Tween-80, higher = longer survival.
Where [8] appears, read: endpoint: median tumor weight (est.), dose: 50.0 mg/kg/injection, schedule: Q01DX009 (ip), vehicle: saline with Tween-80, higher = larger tumour.
Setting [9] is: endpoint: median tumor weight (est.), dose: 100.0 mg/kg/injection, schedule: Q01DX009 (ip), vehicle: saline with Tween-80, higher = larger tumour.
[10] abbreviates: endpoint: median tumor weight (est.), dose: 200.0 mg/kg/injection, schedule: Q01DX009 (ip), vehicle: saline with Tween-80, higher = larger tumour.

As for `CC(=O)O[C@H]1C(=O)[C@@]2(C)[C@H]([C@H](OC(=O)c3ccccc3)[C@]3(O)C[C@H](OC(=O)[C@H](O)[C@@H](NC(=O)c4ccccc4)c4ccccc4)C(C)=C1C3(C)C)[C@]1(OC(C)=O)CO[C@@H]1C[C@@H]2O`, the T/C is, setting by setting: (endpoint: mean tumor weight, dose: 10.0 mg/kg/injection, schedule: Q02DX011 (ip), vehicle: Klucel (hydroxypropylcellulose) (HPC), higher = larger tumour) 103 % of control; under setting [1], 78 % of control; under setting [2], 57 % of control; (endpoint: median survival time, dose: 1.32 mg/kg/injection, schedule: Q02DX011 (ip), vehicle: Klucel (hydroxypropylcellulose) (HPC), higher = longer survival) 108 % of control; (endpoint: median survival time, dose: 1.32 mg/kg/injection, schedule: Q02DX011 (ip), vehicle: other, higher = longer survival) 115 % of control; (endpoint: median survival time, dose: 1.98 mg/kg/injection, schedule: Q02DX011 (ip), vehicle: Klucel (hydroxypropylcellulose) (HPC), higher = longer survival) 111 % of control. The T/C reads like this: (endpoint: median survival time, dose: 1.98 mg/kg/injection, schedule: Q02DX011 (ip), vehicle: other, higher = longer survival) 109 % of control; (endpoint: median survival time, dose: 2.5 mg/kg/injection, schedule: Q04DX003 (ip), vehicle: Klucel (hydroxypropylcellulose) (HPC), higher = longer survival) 85 % of control; (endpoint: median survival time, dose: 2.96 mg/kg/injection, schedule: Q02DX011 (ip), vehicle: Klucel (hydroxypropylcellulose) (HPC), higher = longer survival) 103 % of control; (endpoint: median survival time, dose: 4.44 mg/kg/injection, schedule: Q02DX011 (ip), vehicle: Klucel (hydroxypropylcellulose) (HPC), higher = longer survival) 111 % of control; (endpoint: median survival time, dose: 4.44 mg/kg/injection, schedule: Q02DX011 (ip), vehicle: other, higher = longer survival) 115 % of control; (endpoint: median survival time, dose: 5.0 mg/kg/injection, schedule: Q04DX003 (ip), vehicle: Klucel (hydroxypropylcellulose) (HPC), higher = longer survival) 103 % of control. Besides, the T/C runs as follows: (endpoint: median survival time, dose: 6.67 mg/kg/injection, schedule: Q02DX011 (ip), vehicle: Klucel (hydroxypropylcellulose) (HPC), higher = longer survival) 119 % of control; (endpoint: median survival time, dose: 6.67 mg/kg/injection, schedule: Q02DX011 (ip), vehicle: other, higher = longer survival) 112 % of control; (endpoint: median survival time, dose: 10.0 mg/kg/injection, schedule: Q02DX011 (ip), vehicle: Klucel (hydroxypropylcellulose) (HPC), higher = longer survival) 110 % of control; (endpoint: median survival time, dose: 10.0 mg/kg/injection, schedule: Q02DX011 (ip), vehicle: other, higher = longer survival) 106 % of control; (endpoint: median survival time, dose: 10.0 mg/kg/injection, schedule: Q04DX003 (ip), vehicle: Klucel (hydroxypropylcellulose) (HPC), higher = longer survival) 109 % of control; (endpoint: median survival time, dose: 15.0 mg/kg/injection, schedule: Q02DX011 (ip), vehicle: Klucel (hydroxypropylcellulose) (HPC), higher = longer survival) 91 % of control. Also, the T/C reads like this: (endpoint: median survival time, dose: 15.0 mg/kg/injection, schedule: Q02DX011 (ip), vehicle: other, higher = longer survival) 107 % of control; (endpoint: median survival time, dose: 22.5 mg/kg/injection, schedule: Q02DX011 (ip), vehicle: other, higher = longer survival) 108 % of control; (endpoint: median tumor weight (est.), dose: 1.32 mg/kg/injection, schedule: Q02DX011 (ip), vehicle: Klucel (hydroxypropylcellulose) (HPC), higher = larger tumour) 83 % of control; (endpoint: median tumor weight (est.), dose: 1.32 mg/kg/injection, schedule: Q02DX011 (ip), vehicle: other, higher = larger tumour) 106 % of control; (endpoint: median tumor weight (est.), dose: 1.98 mg/kg/injection, schedule: Q02DX011 (ip), vehicle: Klucel (hydroxypropylcellulose) (HPC), higher = larger tumour) 73 % of control; (endpoint: median tumor weight (est.), dose: 1.98 mg/kg/injection, schedule: Q02DX011 (ip), vehicle: other, higher = larger tumour) 96 % of control. Besides, the T/C by setting is: (endpoint: median tumor weight (est.), dose: 2.96 mg/kg/injection, schedule: Q02DX011 (ip), vehicle: Klucel (hydroxypropylcellulose) (HPC), higher = larger tumour) 87 % of control; (endpoint: median tumor weight (est.), dose: 2.96 mg/kg/injection, schedule: Q02DX011 (ip), vehicle: other, higher = larger tumour) 87 % of control; (endpoint: median tumor weight (est.), dose: 4.44 mg/kg/injection, schedule: Q02DX011 (ip), vehicle: Klucel (hydroxypropylcellulose) (HPC), higher = larger tumour) 62 % of control; (endpoint: median tumor weight (est.), dose: 4.44 mg/kg/injection, schedule: Q02DX011 (ip), vehicle: other, higher = larger tumour) 76 % of control; (endpoint: median tumor weight (est.), dose: 6.67 mg/kg/injection, schedule: Q02DX011 (ip), vehicle: Klucel (hydroxypropylcellulose) (HPC), higher = larger tumour) 58 % of control; (endpoint: median tumor weight (est.), dose: 6.67 mg/kg/injection, schedule: Q02DX011 (ip), vehicle: other, higher = larger tumour) 79 % of control. In addition, the T/C by setting is: (endpoint: median tumor weight (est.), dose: 10.0 mg/kg/injection, schedule: Q02DX011 (ip), vehicle: other, higher = larger tumour) 63 % of control; (endpoint: median tumor weight (est.), dose: 15.0 mg/kg/injection, schedule: Q02DX011 (ip), vehicle: Klucel (hydroxypropylcellulose) (HPC), higher = larger tumour) 73 % of control; (endpoint: median tumor weight (est.), dose: 15.0 mg/kg/injection, schedule: Q02DX011 (ip), vehicle: other, higher = larger tumour) 59 % of control; under setting [3], 63 % of control; (endpoint: median tumor weight (est.), dose: 22.5 mg/kg/injection, schedule: Q02DX011 (ip), vehicle: other, higher = larger tumour) 38 % of control; under setting [4], 31 % of control.
As for `COc1cccc(/C=N/NP(=S)(Oc2ccc(C(C)(C)C)cc2)Oc2ccc(C(C)(C)C)cc2)c1OC`, the T/C under setting [5] is 94 % of control; the T/C under setting [6] is 94 % of control; the T/C under setting [7] is 100 % of control; the T/C under setting [8] is 122 % of control; the T/C under setting [9] was 100 % of control; the T/C under setting [10] is 74 % of control.
As for `COC(=O)[C@@]12OC[C@]34[C@H]([C@@H](O)[C@@H]1O)[C@@]1(C)CC(=O)C(O)=C(C)[C@@H]1C[C@H]3OC(=O)[C@H](OC(=O)/C=C(\C)C(C)C)[C@@H]24`, the T/C by setting is: (endpoint: mean tumor weight, dose: 0.5 mg/kg/injection, schedule: Q02DX011 (ip), vehicle: saline with Tween-80, higher = larger tumour) 114 % of control; (endpoint: mean tumor weight, dose: 1.0 mg/kg/injection, schedule: Q02DX011 (ip), vehicle: saline with Tween-80, higher = larger tumour) 94 % of control; (endpoint: mean tumor weight, dose: 2.0 mg/kg/injection, schedule: Q02DX011 (ip), vehicle: saline with Tween-80, higher = larger tumour) 26 % of control.
Take `CC(=O)Nc1ccc(S(=O)(=O)NNC(=O)C(=O)Nc2cccc(Cl)c2)cc1`: the T/C is, setting by setting: under setting [5], 105 % of control; under setting [6], 98 % of control; under setting [7], 86 % of control; under setting [8], 113 % of control; under setting [9], 108 % of control; under setting [10], 92 % of control.
In the case of `N[C@H](C(=O)O)[C@@H]1CC(Cl)=NO1`, the T/C is 2 % of control (endpoint: mean tumor weight, dose: 2.0 mg/kg/injection, schedule: Q02DX011 (ip), vehicle: saline, higher = larger tumour); 165 % of control (endpoint: median survival time, dose: 2.0 mg/kg/injection, schedule: Q01DX010 (ip), vehicle: saline, higher = longer survival); 177 % of control (endpoint: median survival time, dose: 4.0 mg/kg/injection, schedule: Q01DX010 (ip), vehicle: saline, higher = longer survival); 178 % of control (endpoint: median survival time, dose: 8.0 mg/kg/injection, schedule: Q01DX010 (ip), vehicle: saline, higher = longer survival); 90 % of control (endpoint: median survival time, dose: 16.0 mg/kg/injection, schedule: Q01DX010 (ip), vehicle: saline, higher = longer survival); 171 % of control and 176 % of control (endpoint: median survival time, dose: 32.0 mg/kg/injection, schedule: Q04DX005 (ip), vehicle: saline, higher = longer survival). The T/C is, setting by setting: (endpoint: median survival time, dose: 64.0 mg/kg/injection, schedule: Q04DX005 (ip), vehicle: saline, higher = longer survival) 184 % of control and 186 % of control; (endpoint: median survival time, dose: 128.0 mg/kg/injection, schedule: Q04DX005 (ip), vehicle: saline, higher = longer survival) 193 % of control and 195 % of control.
As to `O=c1[nH]c(=O)n(C2CC(O)C(CO)O2)cc1F` (stereo not given), the T/C under setting [1] is 66 % of control; the T/C under setting [2] was 49 % of control; the T/C (endpoint: mean tumor weight, dose: 80.0 mg/kg/injection, schedule: Q02DX011 (ip), vehicle: Klucel (hydroxypropylcellulose) (HPC), higher = larger tumour) was 13 % of control; the T/C under setting [3] is 62 % of control; the T/C under setting [4] is 46 % of control and 70 % of control; the T/C (endpoint: median tumor weight (est.), dose: 160.0 mg/kg/injection, schedule: Q02DX011 (ip), vehicle: Klucel (hydroxypropylcellulose) (HPC), higher = larger tumour) is 23 % of control.
Turning to `[N-]=[N+]=CC(=O)CCC(N)C(=O)O` (stereo not given), the T/C by setting is: (endpoint: median survival time, dose: 1.0 mg/kg/injection, schedule: Q04DX005 (ip), vehicle: saline, higher = longer survival) 150 % of control and 159 % of control; (endpoint: median survival time, dose: 2.0 mg/kg/injection, schedule: Q04DX005 (ip), vehicle: saline, higher = longer survival) 166 % of control and 167 % of control; (endpoint: median survival time, dose: 4.0 mg/kg/injection, schedule: Q04DX005 (ip), vehicle: saline, higher = longer survival) 181 % of control and 183 % of control; (endpoint: median survival time, dose: 8.0 mg/kg/injection, schedule: Q04DX005 (ip), vehicle: saline, higher = longer survival) 186 % of control and 188 % of control; (endpoint: median survival time, dose: 16.0 mg/kg/injection, schedule: Q04DX005 (ip), vehicle: saline, higher = longer survival) 98 % of control.

For the origin of these results see PubChem BioAssay AID288 (DTP/NCI, 2004).
